Reference: patent US20040053857A1, “Glycoalkaloid compositions and various uses thereof” (priority 2002, published 2004)

Assays:
Assay type in all cases: cell-based
[1] = tested on: NHRE fibroblast cell line; experiment: Dose per cell at LD50, 2500 cell 3 day assay; settings: NHRE normal cells, 2500 cells, dose per cell limiting
Text: (§1) Tumour cell lines A2058, NO36 and LS174T and the normal adult dermal fibroblast line NHDF-Ad were used in 5000 cell, six day assays to compare dose per cell at LD50 values for BEC (1:1 solamargine:solasonine), solamargine, solasonine and an equimolar mixture of solamargine and solasonine. Data from the fibroblast cell line NHRE in a 2500 cell 3 day assay was also obtained.

786-O tumour cell line [2] = experiment: Effect of solamargine:solasonine ratio on cytotoxicity, MTT cell proliferation assay; settings: 3 day assay, 5000 cells
Protocol: (§2) Tumour cell lines 786-O and NO36 and normal fibroblasts NHDF-Ad were used in 5000 cell assays, for three, six and six day assays, respectively, to study the effect of solamargine:solasonine ratio on cytotoxicity.
(§3) Solutions of 4 mg/mL solamargine and 4 mg/mL solasonine in 3% acetic acid were mixed to provide the various ratios. These mixtures were diluted in the culture medium appropriate to the cell line used to concentrations ranging from 0.32 to 40 ug/mL. Fifty uL aliquots were added to tissue culture wells seeded with 5000 cells in 150 uL culture medium 24 hours previously.
(§4) Cell survival was assessed using the MTT cell proliferation assay following four days growth after application of the alkaloids. The formazan absorbance of alkaloid treated wells relative to wells treated with an equivalently dilute acetic acid solution expressed as a percentage has been taken as percentage cell survival.

[3] = tested on: NHDF-Ad normal fibroblasts; experiment: as above; settings: 6 day assay, 5000 cells
Protocol: as §2, §3, §4

NO36 tumour cell line [4] = experiment: as above; settings: NO36, 6 day assay, 5000 cells
Protocol: as §2, §3, §4

786-O tumour cell line [5] = experiment: Dose per cell at LD50, 650 cell six day format (dose per cell not limiting); settings: 650 cells
Text: (§5) Tumour cell line LNCaP was used at 7500 cells in a six day assay format while 786-O was used in a 650 cell, six day format where dose per cell is not a limiting factor determining LD50 as well as in 5000 cell, three day format where dose per cell does limit LD50.

786-O tumour cell line [6] = experiment: Dose per cell at LD50, 5000 cell three day format (dose per cell limiting); settings: 5000 cells
Text: as §5

[7] = tested on: NHDF-Ad normal adult dermal fibroblast line; experiment: Dose per cell at LD50, 5000 cell six day assay; settings: NHDF-Ad normal cells, 5000 cells, dose per cell limiting
Text: as §1

A2058 tumour cell line = experiment: Dose per cell at LD50, 5000 cell six day assay; settings: A2058, 5000 cells, dose per cell limiting
Text: as §1

LS174T tumour cell line = experiment: Dose per cell at LD50, 5000 cell six day assay; settings: 5000 cells, dose per cell limiting
Text: as §1

NO36 tumour cell line [8] = experiment: Dose per cell at LD50, 5000 cell six day assay; settings: NO36, 5000 cells, dose per cell limiting
Text: as §1

LNCaP tumour cell line = experiment: Dose per cell at LD50, 7500 cell six day assay; settings: 7500 cells, dose per cell limiting
Text: as §5

In the case of `C[C@@H]1CC[C@@]2(NC1)O[C@H]1C[C@H]3[C@@H]4CC=C5C[C@@H](O[C@@H]6O[C@H](CO)[C@@H](O[C@@H]7O[C@@H](C)[C@H](O)[C@@H](O)[C@H]7O)[C@H](O)[C@H]6O[C@@H]6O[C@@H](C)[C@H](O)[C@@H](O)[C@H]6O)CC[C@]5(C)[C@H]4CC[C@]3(C)[C@H]1[C@@H]2C` [Solamargine, solamargine], the “Dose per cell at LD50, pg/cell of total alkaloid” value (“Dose per cell at LD50, pg/cell” for short) [1] is reported as 227.9 pg/cell, the “Dose per cell at LD50,” value (786-O tumour cell line [2]) is reported as 304 pg and the “Dose per cell at LD50,” value [3] is reported as 112 pg. The “Dose per cell at LD50,” value (NO36 tumour cell line [4]) was 209 pg, the “Dose per cell at LD50, pg/cell” value (786-O tumour cell line [5]) was 1394.0 pg/cell and the “Dose per cell at LD50, pg/cell” value (786-O tumour cell line [6]) was 208.0 pg/cell. The “Dose per cell at LD50, pg/cell” value [7] was 209.2 pg/cell, the “Dose per cell at LD50, pg/cell” value (A2058 tumour cell line) was 199.0 pg/cell and the “Dose per cell at LD50, pg/cell” value (LS174T tumour cell line) was 162.8 pg/cell. For the same compound, the “Dose per cell at LD50, pg/cell” value (NO36 tumour cell line [8]) was 154.8 pg/cell and the “Dose per cell at LD50, pg/cell” value (LNCaP tumour cell line) was 121.9 pg/cell.

With `C[C@@H]1CC[C@@]2(NC1)O[C@H]1C[C@H]3[C@@H]4CC=C5C[C@@H](O[C@@H]6O[C@H](CO)[C@H](O)[C@H](O[C@@H]7O[C@H](CO)[C@@H](O)[C@H](O)[C@H]7O)[C@H]6O[C@@H]6O[C@@H](C)[C@H](O)[C@@H](O)[C@H]6O)CC[C@]5(C)[C@H]4CC[C@]3(C)[C@H]1[C@@H]2C` [Solasonine, solasonine] the “Dose per cell at LD50, pg/cell” value [1] was 1657.7 pg/cell, the “Dose per cell at LD50,” value (786-O tumour cell line [2]) was 500 pg and the “Dose per cell at LD50,” value [3] was 400 pg. The “Dose per cell at LD50,” value (NO36 tumour cell line [4]) was 613 pg, the “Dose per cell at LD50, pg/cell” value (786-O tumour cell line [5]) was 5606.0 pg/cell and the “Dose per cell at LD50, pg/cell” value (786-O tumour cell line [6]) was >400 pg/cell. The “Dose per cell at LD50, pg/cell” value [7] was 587.6 pg/cell, the “Dose per cell at LD50, pg/cell” value (A2058 tumour cell line) was 685 pg/cell and the “Dose per cell at LD50, pg/cell” value (LS174T tumour cell line) was >400 pg/cell. For the same compound, the “Dose per cell at LD50, pg/cell” value (NO36 tumour cell line [8]) was 613.2 pg/cell and the “Dose per cell at LD50, pg/cell” value (LNCaP tumour cell line) was 432.5 pg/cell.
